# Test results from patent publication US8389679B2, “Targeted antimicrobial moieties” (priority 2009, dated 2013).
# Where two headings read alike, the source gives them in different places. Where a SMILES comes first, the peptide text is derived from it. Where no end group is shown, it is not given here.
# What was measured:
# S. mutans biofilms = experiment: Binding of targeting peptides by fluorescent microscopy; set-up: species or system Streptococcus mutans; conditions: 25 μM peptide, 5 min; data not shown
# Experimental: Binding of Targeting Peptides. The binding of peptides 1—2, 1—3, 1—4, 1—6, 2—1, and 3—1 was assessed by fluorescent microscopy. S. mutans UA159 was grown overnight and diluted 1:5000 in fresh TH with 1% sucrose before seeding to 96-well plates (flat bottom). Biofilms were grown 24 h and the spent medium replaced with 1×PBS containing 25 μM peptide. After 5 min incubation at room temperature, the supernatants were removed and the biofilms washed 2× with 1×PBS and imaged by bright-field and fluorescence microscopy (Nikon E400). Digital images were collected and analyzed for semiquantitative binding assessments with the manufacturers supplied software (SPOT, Diagnostics) (6).
# bacteria = experiment: Bacterial binding of blank peptide (data not shown)
# S. mutans [1] = experiment: Microbial population shift assay (mixed planktonic culture); format: cell-based, Streptococcus mutans; conditions: 10 μM peptide, 24 h, FIG. 16
# Experimental: (§1) FIG. 16 illustrates the selective activity of dual-targeted and single-targeted MH-STAMPs in mixed culture. […] After incubation, cfu/mL of remaining constituent species were quantitated after plating to selective media. * indicates under 200 surviving cfu/mL recovered.
# (§2) Peptide (10 μM) or mock-treatment (1×PBS) was then added and samples were incubated at 37° C. for 24 h under anaerobic conditions (80% N2, 15% CO2, 5% H2). […] Plates were then incubated 37° C. under aerobic conditions (TH plates were incubated anaerobically) and colonies counted after 24 h to determine survivors. […] Gram stains and direct microscopic observation (from select isolated colonies) were undertaken to confirm species identity (data not shown). The detection limit of the assay was 200 cfu/mL.
# P. aeruginosa [2] = experiment: as above; format: cell-based, Pseudomonas aeruginosa; conditions: 10 μM peptide, 24 h, FIG. 16
# Experimental: as §1, §2
# E. coli [3] = experiment: as above; format: cell-based, Escherichia coli; conditions: 10 μM peptide, 24 h, FIG. 16
# Experimental: as §1, §2
# S. epidermidis [4] = experiment: as above; format: cell-based, Staphylococcus epidermidis; conditions: 10 μM peptide, 24 h, FIG. 16
# Experimental: as §1, §2
# S. mutans [5] = experiment: Post-antibiotic effect assay (growth retardation in monoculture); conditions: peptide for 10 min, then fresh medium, FIG. 15A
# Experimental: (§3) Agent was then removed and fresh media returned. Culture recovery was measured over time (OD600). Plots represent the average of at least 3 independent experiments with standard deviations.
# (§4) The activity and selectivity of MH-STAMPs after a 10 min incubation was determined by growth retardation experiments against targeted and untargeted bacteria in monocultures, as described previously [10, 11]. Cells from overnight cultures were diluted to ˜5×10^6 cfu/mL in MH (or TH with 1% sucrose for S. mutans), normalized by OD600 0.05-0.1 and seeded to 96-well plates. Cultures were then grown under the appropriate conditions for 2 h (3 h for S. mutans) prior to the addition of peptides for 10 min. Plates were then centrifuged at 3000×g for 5 min, the supernatants discarded, fresh medium returned (MH or TH without sucrose for S. mutans), and incubation resumed. Bacterial growth after treatment was then monitored over time by OD600.
# S. mutans [6] = experiment: Growth phenotype or other activity induced by peptide (Table 9); format: cell-based
# S. mutans [7] = system: S. mutans
# E. coli [8] = experiment: Post-antibiotic effect assay (growth retardation in monoculture); format: cell-based, Escherichia coli; conditions: peptide for 10 min, then fresh medium, FIG. 15E
# S. aureus = experiment: as above; format: cell-based, Staphylococcus aureus; conditions: peptide for 10 min, then fresh medium, FIG. 15D
# P. aeruginosa [9] = experiment: as above; conditions: peptide for 10 min, then fresh medium, FIG. 15B
# Experimental: as §3, §4
# S. epidermidis [10] = experiment: as above; conditions: peptide for 10 min, then fresh medium, FIG. 15C
# Experimental: as §3, §4
molecule,measurement,setting,value
WWSYWWTQW [1_3],binding to S. mutans biofilms,S. mutans biofilms,retain biofilm binding
FIKHFIHRF [2_1],binding to S. mutans biofilms,S. mutans biofilms,retain biofilm binding
WWKDWWERW [1_4],binding to S. mutans biofilms,S. mutans biofilms,retain biofilm binding
DAANEA-GGG (DAANEAGGG; synthetic BL-1 peptide with no bacterial binding),bacterial binding,bacteria,no bacterial binding
"CC[C@H](C)[C@H](NC(=O)[C@H](Cc1ccccc1)NC(=O)CCCCCCCNC(=O)[C@H](CCCCNC(=O)CNC(=O)CNC(=O)CNC(=O)[C@H](Cc1c[nH]cn1)NC(=O)[C@H](CCCCN)NC(=O)[C@H](CCCNC(=N)N)NC(=O)[C@H](Cc1c[nH]cn1)NC(=O)[C@H](CCCCN)NC(=O)[C@H](CCCNC(=N)N)NC(=O)[C@H](Cc1c[nH]cn1)NC(=O)[C@H](CCCCN)NC(=O)[C@H](CCCNC(=N)N)NC(=O)[C@H](Cc1c[nH]cn1)NC(=O)[C@H](CCCCN)NC(=O)[C@@H](N)CCCCN)NC(=O)CNC(=O)CNC(=O)CNC(=O)[C@H](C)NC(=O)[C@H](CCC(=O)O)NC(=O)[C@H](CC(N)=O)NC(=O)[C@H](C)NC(=O)[C@H](C)NC(=O)[C@H](CC(=O)O)NC(C)=O)C(=O)N[C@@H](CCCNC(=N)N)C(=O)N[C@@H](CCCCN)C(=O)N[C@@H](Cc1ccccc1)C(=O)N[C@@H](CC(C)C)C(=O)N[C@@H](CCCCN)C(=O)N[C@@H](CCCCN)C(=O)N[C@@H](Cc1c[nH]c2ccccc12)C(=O)N[C@@H](CC(C)C)C(=O)N[C@@H](CC(C)C)C(N)=O [BL(KH)-20] (HELM PEPTIDE1{[ac].D.A.A.N.E.A.G.G.G.K.[O=C(CCCCCCCN[*:1])[*:2]].F.I.R.K.F.L.K.K.W.L.L.[am]}|PEPTIDE2{K.K.H.R.K.H.R.K.H.R.K.H.G.G.G}$PEPTIDE1,PEPTIDE2,11:R3-15:R2$$$V2.0)",recoverable S. mutans cfu/mL in mixed culture (in words),S. mutans [1],higher than input cfu/mL
same,recoverable P. aeruginosa cfu/mL in mixed culture (in words),P. aeruginosa [2],not observed
same,recoverable E. coli cfu/mL in mixed culture (in words),E. coli [3],unchanged numbers
same,recoverable S. epidermidis cfu/mL in mixed culture (in words),S. epidermidis [4],unchanged numbers
same,"S. mutans growth after treatment (culture recovery, OD600)",S. mutans [5],not altered
EIPIQLANDLANYYDISLDSIFFW [G-4],"Organism, effect (S. mutans)",S. mutans [6],Biofilm structure
"FHFHLHFAGAFIKHFIHRF-NH2 [135(L13)2_1, FHFHLHFAGAFIKHFIHRF]",S. mutans (MIC),S. mutans [7],32 µg/mL
"FHLHFHFGGGFRHIFHKIF-NH2 [135i(L1)2_1i, FHLHFHFGGGFRHIFHKIF]",S. mutans (MIC),S. mutans [7],16 µg/mL
FHFHLHFGAGAGFIKHFIHRF-NH2 [135(L14)2_1],S. mutans (MIC),S. mutans [7],32 µg/mL
"FHFHLHFGGGFIKHFIHRF-NH2 [135(L1)2_1, FHFHLHFGGGFIKHFIHRF]",S. mutans (MIC),S. mutans [7],16 µg/mL
same,concentration active against S. mutans (MIC),S. mutans [7],lower than 100 μg/mL
FHFHLHFGGGGGGGFIKHFIHRF-NH2 [135(G7)2_1],S. mutans (MIC),S. mutans [7],32 µg/mL
LIKHILHRL [3_1],binding to S. mutans biofilms,S. mutans biofilms,retain biofilm binding
"Ac-FHFHLHFGGGFIKHFIHRF-NH2 [Ac135(L1)2_1, Ac-FHFHLHFGGGFIKHFIHRF]",S. mutans (MIC),S. mutans [7],32 µg/mL
"FHFHLHFAAAFIKHFIHRF-NH2 [135(L2)2_1, FHFHLHFAAAFIKHFIHRF]",S. mutans (MIC),S. mutans [7],16 µg/mL
WWHSWWSTW [1_2],binding to S. mutans biofilms,S. mutans biofilms,retain biofilm binding
"CC[C@H](C)[C@H](NC(=O)[C@H](Cc1ccccc1)NC(=O)CNC(=O)CNC(=O)CNC(=O)[C@H](Cc1ccccc1)NC(=O)[C@H](Cc1c[nH]cn1)NC(=O)[C@H](CC(C)C)NC(=O)[C@H](Cc1c[nH]cn1)NC(=O)[C@H](Cc1ccccc1)NC(=O)[C@H](Cc1c[nH]cn1)NC(=O)[C@H](Cc1ccccc1)NC(=O)c1ccccc1)C(=O)N[C@@H](CCCCN)C(=O)N[C@@H](Cc1c[nH]cn1)C(=O)N[C@@H](Cc1ccccc1)C(=O)N[C@H](C(=O)N[C@@H](Cc1c[nH]cn1)C(=O)N[C@@H](CCCNC(=N)N)C(=O)N[C@@H](Cc1ccccc1)C(N)=O)[C@@H](C)CC [bz135(L1)2_1, benzoate-FHFHLHFGGGFIKHFIHRF] (HELM PEPTIDE1{[O=C(c1ccccc1)[*:2]].F.H.F.H.L.H.F.G.G.G.F.I.K.H.F.I.H.R.F.[am]}$$$$V2.0)",S. mutans (MIC),"S. mutans [7]; Library 2 STAMPs, all S. mutans isolates tested, minimum of three independent trials",32 µg/mL
"FRHIFHKIFGGGFHLHFHF-NH2 [2_1i(L1)135i, FRHIFHKIFGGGFHLHFHF]",S. mutans (MIC),S. mutans [7],16 µg/mL
FHFHLHFGGGGGFIKHFIHRF-NH2 [135(G5)2_1],S. mutans (MIC),S. mutans [7],16 µg/mL
WWQDWWNEW [1_6],binding to S. mutans biofilms,S. mutans biofilms,retain biofilm binding
"FIRKFLKKWLL-NH2 [BD2.20, FIRKFLKKWLL]","E. coli growth after treatment (culture recovery, OD600)",E. coli [8],inhibited
same,"S. aureus growth after treatment (culture recovery, OD600)",S. aureus,inhibited
same,recoverable S. mutans cfu/mL in mixed culture (in words),S. mutans [1],significant loss of recoverable cfu/mL
same,recoverable P. aeruginosa cfu/mL in mixed culture (in words),P. aeruginosa [2],significant loss of recoverable cfu/mL
same,recoverable E. coli cfu/mL in mixed culture (in words),E. coli [3],significant loss of recoverable cfu/mL
same,recoverable S. epidermidis cfu/mL in mixed culture (in words),S. epidermidis [4],significant loss of recoverable cfu/mL
same,"S. mutans growth after treatment (culture recovery, OD600)",S. mutans [5],robust antimicrobial activity
same,"P. aeruginosa growth after treatment (culture recovery, OD600)",P. aeruginosa [9],robust antimicrobial activity
same,"S. epidermidis growth after treatment (culture recovery, OD600)",S. epidermidis [10],inhibited
